The values below come from publication PMC6271966, “Synthesis and Biological Activity of Some Bile Acid-Based Camptothecin Analogues” (Molecules, 2014).

Data set [1] has as its system human colon cancer cell line (HCT-116). The data set can be described thus: MTT cytotoxicity assay, HCT-116. Type of data set: cell-based. The following applies: HCT-116, 72 h, read-out: In Vitro Cytotoxicity (IC50, µM) HCT-116. As for the experimental part: (§1) The cytotoxicity of these compounds against three cancer cell lines was assayed using a conventional microtitre plate tetrazolium cytotoxicity assay. The human hepatoma cancer cell line (SMMC-7721), the colon cancer cell line (HCT-116), and the human breast cancer cell line (MCF-7) were provided by The Chinese Academy of Sciences cell bank. These cells were plated at a density of 1 × 10^5 cells/mL and incubated in a 96-well late for 24 h (37 °C, 5% CO2). The cells were then exposed to various concentrations of the compounds (0.0032, 0.016, 0.08, 0.4, 2, 10, and 50 µM/mL) continuously for 72 h. After this incubation, MTT solution (20 μL, 5 mg/mL) was added to each well and incubated for a further 4 h before removing the media. Formazan crystals were then dissolved by the addition of DMSO (100 μL per well). After mixing, the absorbance was read at 540 nm on a microplate reader. These assays were performed in three independent experiments. Wells containing no drugs, or CPT, were used as negative and positive controls, respectively. The IC50 values, defined as the concentration of compounds that produced a 50% decrease in surviving cells, were calculated using the Logit-method.

In data set [2] the test system is human breast cancer cell line (MCF-7). Briefly: MTT cytotoxicity assay, MCF-7. The format is cell-based. The following applies: MCF7, 72 h, read-out: In Vitro Cytotoxicity (IC50, µM) MCF-7. As for the experimental part:
as §1
For orientation: Formazan colour is commonly taken as a measure of viable cells.

Data set [3] has as its system human hepatoma cell line (SMMC-7721). The data set can be described thus: MTT cytotoxicity assay, SMMC-7721. The format is cell-based. The note with it: SMMC-7721, 72 h, read-out: In Vitro Cytotoxicity (IC50, µM) SMMC7721. As for the experimental part: as §1

The IC50 is the concentration needed to halve the response being measured. In general, melting point refers to the temperature, or range, at which the solid turns liquid. As to `CC[C@@]1(OC(=O)CNC(=O)CCC(C)C2CCC3C4C(C[C@H](O)[C@]23C)[C@@]2(C)CC[C@@H](O)CC2C[C@H]4O)C(=O)OCc2c1cc1n(c2=O)Cc2cc3ccccc3nc2-1` (stereo partly drawn) [Compound E1, Camptothecin-20 (S)-O-glycine Ester-[N-(3′α,7′α,12′α-trihydroxy-24′-carbonyl-5′β-cholane)]], the melting point was in the range of 200 to 203 °C. Further, the IC50 in data set [1] was found to be 2.9 µM. Moreover, in data set [2], the IC50 worked out at 18.3 µM. Moreover, the IC50 in data set [3] stood at 2.23 µM.
In the same order, the values of `CC[C@@]1(OC(=O)CNC(=O)CCC(C)C2CCC3C4C(CC[C@]23C)[C@@]2(C)CC[C@@H](O)CC2C[C@@H]4O)C(=O)OCc2c1cc1n(c2=O)Cc2cc3ccccc3nc2-1` (stereo partly drawn) [Compound E3, Camptothecin-20 (S)-O-glycine Ester-[N-(3′α,7′β-dihydroxy-24′-carbonyl-5′β-cholane)]] are 209 to 211 °C, 2.4 µM, 61 µM and 2.18 µM.
In turn, `CC[C@@]1(OC(=O)CNC(=O)CCC(C)C2CCC3C4C(CC[C@]23C)[C@@]2(C)CC[C@@H](O)CC2C[C@H]4O)C(=O)OCc2c1cc1n(c2=O)Cc2cc3ccccc3nc2-1` (stereo partly drawn) [Compound E4, Camptothecin-20 (S)-O-glycine Ester-[N-(3′α,7′α-dihydroxy-24′-carbonyl-5′β-cholane)]] came in with a melting point of 202 to 203 °C. Further, in data set [1], the IC50 was determined as 2.88 µM. Further, in data set [2], the IC50 amounted to 20 µM. The IC50 in data set [3] is 2.25 µM.
Take `CC[C@@]1(OC(=O)C(CCC(=O)OC)NC(=O)CCC(C)C2CCC3C4C(C[C@H](O)[C@]23C)[C@@]2(C)CC[C@@H](O)CC2C[C@H]4O)C(=O)OCc2c1cc1n(c2=O)Cc2cc3ccccc3nc2-1` (stereo partly drawn) [Compound F1, Camptothecin-20 (S)-O-(D-Glu (OMe)) Ester-[N-(3′α,7′α,12′α-trihydroxy-24′-carbonyl-5′β-cholane)]]: the melting point is 195 to 196 °C. The IC50 in data set [1] came out at 70 µM. Besides, the IC50 in data set [2] turned out to be 40 µM. Besides, the 50% inhibitory concentration (IC50) in data set [3] worked out at 55.7 µM.
Consider `CC[C@@]1(OC(=O)C(CCC(=O)OC)NC(=O)CCC(C)C2CCC3C4C(CC[C@]23C)[C@@]2(C)CC[C@@H](O)CC2C[C@@H]4O)C(=O)OCc2c1cc1n(c2=O)Cc2cc3ccccc3nc2-1` (stereo partly drawn) [Compound F3, Camptothecin-20 (S)-O-(D-Glu(OMe)) Ester-[N-(3′α,7′β-dihydroxy-24′-carbonyl-5′β-cholane)]], for which the melting point lay within 187 to 189 °C. For the same compound, the IC50 in data set [1] worked out at 13 µM. For the same compound, the IC50 in data set [2] was 46.3 µM. Moreover, the IC50 in data set [3] was found to be 12.2 µM.
For `CC[C@@]1(O)C(=O)OCc2c1cc1n(c2=O)Cc2cc3cc(OCCCOC(=O)CCC(C)C4CCC5C6C(C[C@H](O)C45)C4CC[C@@H](O)CC4C[C@H]6O)ccc3nc2-1` (stereo partly drawn) [Compound H1, 10-O-(3-O-(3′α,7′α,12′α-Trihydroxy-24′-carbonyl-5′β-cholan)-propyl)-20(S)-camptothecin], the values for the IC50 in data set [1], in data set [2] and in data set [3] were 7.4 µM, 3 µM and 3.2 µM, respectively.
For `CC[C@@]1(O)C(=O)OCc2c1cc1n(c2=O)Cc2cc3cc(OCCCOC(=O)CCC(C)C4CCC5C4CCC4C6CC[C@@H](O)CC6C[C@H](O)C45)ccc3nc2-1` (stereo partly drawn) [Compound H3, 10-O-(3-O-(3′α,7′β-Dihydroxy-24′-carbonyl-5′β-cholan)-propyl)-20(S)-camptothecin], the results for the IC50 in data set [1], in data set [2] and in data set [3] were 0.8 µM, 2.8 µM and 3.34 µM, respectively.
For the compound `CC[C@@]1(O)C(=O)OCc2c1cc1n(c2=O)Cc2cc3cc(OCCCOC(=O)CCC(C)C4CCC5C4CCC4C6CC[C@@H](O)CC6C[C@@H](O)C45)ccc3nc2-1` (stereo partly drawn) [Compound H4, 10-O-(3-O-(3′α,7′α-Dihydroxy-24′-carbonyl-5′β-cholan)-propyl)-20(S)-camptothecin], the IC50 in data set [1] was 1.4 µM; in data set [2] it was 30 µM; in data set [3] it was 2.18 µM.
